Here are results for 3 molecules from article PMC12229680, “Neuroprotective and intraocular pressure lowering effects of dual-functional memantine nitrate MN-08 on the experimental models of glaucoma” (Scientific Reports, 2025).

Experiment [1] relates to preclinical models and glaucoma patients. Details: method as in PMID 25488946, PMID 28234563, PMID 21396362. Particulars: cited from earlier work.
The test system of experiment [2] is carbomer-induced glaucoma rabbit model. As to the kind of experiment: Carbomer-induced experimental glaucoma model in rabbits (IOP). Particulars: latanoprost 0.005% single topical instillation; 0-360 min. Format: in vivo. On the procedure: The methods were performed as previously described. New Zealand rabbits were anesthetized using an auricular vein injection of 60 mg/kg pentobarbital sodium. Local anesthesia of the corneas was achieved using tetracaine hydrochloride, followed by pupil dilation with tropicamide. An experimental glaucoma model was established by bilaterally injecting 0.25% carbomer (0.1 mL) into the anterior eye chamber of the rabbits. On the fifth day post-carbomer injection, stable high IOP was induced in the rabbits. MN-08 (0.5%, 0.2%, 0.1%, and 0.02%) or latanoprost (0.005%) was administered with a single topical instillation. IOP was measured continuously at 0, 30, 60, 120, 240, and 360 min following instillation with MN-08 or latanoprost (with 5 consecutive measurements being averaged to obtain a single value). At the last IOP measurement, the rabbits were euthanized under sodium pentobarbital anesthesia (100 mg/kg, i.v).

In experiment [3] the test system is human trabecular meshwork cells (HTMCs). As to the kind of experiment: cGMP ELISA assay in HTMCs. The experiment is classed as cell-based. The note with it: 30 min. How it is done: Primary human trabecular meshwork cells (HTMCs) were isolated from the juxtacanalicular and corneoscleral regions of the human eye from ScienCell Research Laboratories (ScienCell, Carlsbad, CA). HTMCs were maintained in a complete medium consisting of DMEM enriched with 10% fetal bovine serum (FBS) and antibiotics (100 U/ml penicillin and 100 μg/ml streptomycin). Cells were cultured in a humidified incubator containing 5% CO2 at 37 °C. Experiments are conducted using HTMCs between the 5th and 8th passages to avoid cellular senescence. All reagents were obtained from Gibco (San Diego, CA, USA).
HTMCs were seeded at a density of 2 × 10^5 cells per well in 6-well plates. When reaching 80% confluency, the cells were subsequently incubated overnight in low-serum medium (DMEM supplemented with 0.5% FBS). […] After incubating, cells were harvested and lysed, and the levels of cGMP were detected by an ELISA kit (Abcam Corporation, Cambridge, UK). The procedure was conducted following the instructions provided by the manufacturer.

Experiment [4] concerns retinal ganglion cells (RGCs) in retinal ischemia–reperfusion injury rats. As to the kind of experiment: Retinal ischemia–reperfusion injury model in rats (HE staining, Brn-3a immunofluorescence). Particulars: Memantine 10 mg/kg tail vein, vs Model group. The experiment is classed as in vivo, rat. On the procedure: Male Sprague Dawley rats were anesthetized with pentobarbital sodium (30 mg/kg, i.p.). Local anesthesia was administered to the corneas using tetracaine hydrochloride, followed by pupil dilation with tropicamide. A 30-gauge infusion needle was inserted into the anterior chamber of the eye and connected to a normal saline reservoir until the iris turned white. Retinal ischemia was maintained for 1 h at IOP of 110 mmHg. Upon careful withdrawal of the needle, IOP returned to normal, thereby inducing retinal ischemia–reperfusion injury. MN-08 (12 mg/kg) and Memantine (10 mg/kg) were administered via tail vein injection at 3 and 6 h post-surgery and continued twice daily for the subsequent two days. […]
Rats were euthanized by deep anesthetization with pentobarbital sodium (100 mg/kg, i.p.), and their eyes were enucleated for histology analysis. […] Ganglion cell complex (GCC) thickness and the RGCs numbers (retinal ganglion cell layer) were measured and analyzed with ImageJ software.
Eyes of sacrificed rats were rapidly removed; the cornea was cut along the corneoscleral rim after rinsing with PBS under the microscope. […] RGCs were observed using a fluorescence microscope (Olympus, Tokyo, Japan). The number of Brn-3a positive cells was counted manually in five randomly selected fields of view for each region of the whole-mount retina (including the center, mid-periphery, and periphery).

For another experiment, the system named is glaucoma patients. The note with it: cited from earlier work.

On to `O=C(CCC/C=C\C[C@@H]1[C@@H](CC[C@@H](O)CCc2ccccc2)[C@H](O)C[C@@H]1O)OCCCCO[N+](=O)[O-]` [Latanoprostene bunod (LBN), Latanoprostene bunod], for which the “reduction in IOP compared to latanoprost” value in experiment [1] was “great reduction”.

As to `CC(C)OC(=O)CCC/C=C\C[C@@H]1[C@@H](CC[C@@H](O)CCc2ccccc2)[C@H](O)C[C@@H]1O` [latanoprost], the “carbomer-induced IOP elevation (change from baseline)” value in experiment [2] is “reduced”. Further, the cGMP levels entry in experiment [3] (latanoprost 0.1 μM) is recorded as “neither latanoprost (0.1 μM) nor memantine (10 μM) had any statistically significant effects”.

For the molecule `CC12CC3CC(C)(C1)CC(N)(C3)C2` [Memantine], the “degree of retinal damage (HE staining)” value in experiment [4] (3 and 6 h post-surgery then twice daily for two days) was “reduced”. Besides, the “survival of RGCs (Brn-3a positive cells)” value in experiment [4] is reported as “significantly increased”. For the same molecule, the glaucoma progression result with glaucoma patients (clinical trials) was “failed to significantly delay”. For the same molecule, the “effect in protecting visual function” value with glaucoma patients (phase 3 clinical trial) is “no significant effect”. In addition, in experiment [3] (memantine 10 μM), the cGMP levels entry is listed as “neither latanoprost (0.1 μM) nor memantine (10 μM) had any statistically significant effects”.
